The values below come from patent US7632814B2, “HYD1 peptides as anti-cancer agents” (University of South Florida, priority 2006, dated 2009).

Assay [1] relates to 8226 cells. Put plainly: HS-5 co-culture (SF+A) model of drug resistance, melphalan apoptosis. It is filed as cell-based. On the procedure: (§1) Co-culture model. HS-5/GFP cells were plated at a density of 500,000 cells per ml and incubated overnight. Myeloma cells were incubated with vehicle control (water), 50 μg/ml HYD1 or 50 μg/ml HYD1S 30 minutes prior to the addition of myeloma cells (400,000 cell/ml) to either control plates or plates containing HS-5 cells. Myeloma cells were incubated with HS-5 cells for three hours prior to the addition of melphalan. Apoptotic cells were measured in GFP negative myeloma cells, by annexin PE staining and FACS analysis (n=9). ANOVO was performed to determine significance between conditions.
(§2) Briefly, 8226 myeloma cells were pre-incubated with varying concentrations of either HYD1 or the scrambled HYD1S peptide for 30 minutes prior to allowing cells to attach to FN for two hours. Following two hours of cell adhesion, the amount of cells adherent to FN was measured. The next objective was to determine whether treatment of tumor cells with HYD1 results in potentiation of melphalan induced cell death in the BMS co-culture model (SF+A). […] For these studies, the HYD1 and HYD1S were pre-incubated with the […] for 30 minutes, and then cells and culture media containing the peptide were placed into the S-5 culture dish. Myeloma cells were co-cultured for an additional 3 hours with HS-5 cells before the addition of melphalan. Twenty-four hours after drug treatment, apoptosis was measured by Annexin V-PE positive events by FACS analysis. The HS-5 cells constitutively express GFP and thus it is possible to gate GFP negative cells only (myeloma cells) for the apoptotic analysis.

For assay [2], the system named is H929 cells. The assay is described as above. It is filed as cell-based. On the procedure: as §1, §2
A further assay has as its system ERK. Put plainly: Activation of ERK signaling. It is filed as cell-based. As to the method: HYD1, when introduced as a soluble ligand, completely blocks random hapotaxis on laminin 322 and enhanced cellular signals are coupled with the loss of cell motility. […] Using this endpoint as an indicator of HYD1 bioactivity, the truncated and alanine-substituted variants of HYD1 were tested for their ability to activate ERK. Activation of ERK at 10 minutes post-treatment was conserved with alanine-substitution only at the N-terminal lysine and C-terminal glycine (FIG. 16A-1). […] Taken together (FIG. 16C-2), the results (FIGS. 16A-1, 16A-2, 16B, 16C-1) indicate that activation of ERK signaling required ikmviswxx (SEQ ID NO:48).

The test system of assay [3] is 8226 cells. The experiment in a line: Lysosensor staining of acidic vesicles, confocal microscopy. The format is cell-based. To be noted: 100 μg/ml, six hours, compared to control cells. As to the method:
(§3) Lysosensor green was used to detect acidic compartments and live cell imaging was performed by confocal microscopy. Shown is a representative figure. The experiment was repeated three independent times and similar results were obtained.
(§4) Lysosensor staining. 35 mm glass bottom microwell dishes were incubated with 10 ul Cell-tak (BD biosciences San Jose, Calif.) and 290 ul 0.5M sodium bicarbonate (Sigma) for 30 minutes. The plates were aspirated and 200,000H929 or 8226 cells were plated. Cells were then treated with either water (VC), 100 μg/ml HYD1 or 100 μg/ml HYD1S for 6 hours. After the 6-hour incubation, the plates were aspirated and washed once with warm media. Media containing 1 μM lysosensor DND-189 (Molecular Probes, Carlsbad Calif.) and 20 μM Hoechst 33342 (Molecular Probes) was added and samples were incubated for an additional 30 minutes. Samples were analyzed with a Leica DMI6000 inverted TCS SP5 confocal scanner (Leica Microsystems, Germany). 405 Diode and Argon laser lines were applied to excite the samples and tunable filters were used to minimize the crosstalk between fluorochromes. Gain, offset, and pinhole setting were identical for all samples within the treatment group. Image sections at […] were captured with photomultiplier detectors and maximum projections were prepared with the LAS AF software version 1.6.0 build 1016 (Leica Microsystems, Germany).

In assay [4] the test system is H929 cells. The assay is described as above. It is filed as cell-based. To be noted: 100 μg/ml, six hours, compared to control cells. On the procedure: as §3, §4
The subject of a further assay is H929 MM. Put plainly: SCID-Hu in vivo model, tumor burden. On the set-up: species or system SCID mice. To be noted: H929, 8 mg/kg I.P. daily for 14 days starting day 28. On the procedure: Tumor burden was measured by circulating […] levels. On day 28 (before drug treatment), measurements were recorded for each individual mouse and subsequent values obtained weekly are represented as a ratio of day 28 (day X/day 28). N=4 mice per group. HYD1 was administered I.P. at 8 mg/kg daily for 14 days (starting day 28).
SCID-Hu model. The SCID-Hu model was performed as previously described (Zhu K et al. Blood, 2005; 105:4759-4766). Briefly, SCID/Beige mice 4-6 weeks old were purchased from Taconic (Germantown, N.Y.). Fetal tissue (18-23 weeks) was obtained from Advance Bioscience Resource (Alameda, Calif.) in compliance with state and federal government regulations. Two bones were surgically implanted in the mammary fat pad of 6-8 week old female SCID mice. […] At 28 days, baseline tumor burden was quantified in the sera using either a lambda (8226) or kappa (H929) ELISA kit per manufacture instructions (Bethyl, Montgomery, Tex.) and mice were randomized into treatment groups. […] Tumor burden was assessed weekly by measuring kappa or lambda levels in the sera.
The SCID-Hu model consists of implanting human fetal bone into the mammary mouse fat pad of SCID mice. […] Human paraprotein can be measured in the mouse sera and levels represent a good marker for evaluating tumor burden and response to chemotherapy. […]

Where no end group is shown, it is not given here. [ ]: non-standard residue; d: D form.

Regarding “kikmviswkg ([dK][dI][dK][dM][dV][dI][dS][dW][dK]G) [HYD1]”, the “resistance to melphalan associated with the bone marrow stroma model” value with 8226 cells [1] (8226 cells) is “completely reversed resistance”. Besides, the “potentiation of melphalan-induced apoptosis in the SF+A model” value is listed as “potentiates melphalan-induced apoptosis” with 8226 cells [1] (8226 cells co-cultured with HS-5, 50 μg/ml peptide, with melphalan) and “potentiates melphalan-induced apoptosis” in the assay on H929 cells [2] (H929 cells co-cultured with HS-5, 50 μg/ml peptide, with melphalan). Also, in the assay with H929 cells [2] (H929 cells), the “resistance to melphalan associated with HS-5 co-culture” value was “reduced resistance”. Also, the “time of maximal activation of ERK post-treatment” value in the assay with ERK was determined as 10 min. Further, the “activation of ERK” value in the assay with ERK (10 minutes post-treatment) was “induces activation of ERK”. For the same substance, the “number and size of acidic vesicles” value is “increase in the number and size of acidic vesicles” with 8226 cells [3]; “increase in the number and size of acidic vesicles” in the assay with H929 cells [4]. Moreover, in the assay on H929 MM, the “tumor growth in vivo compared to vehicle control” value is recorded as “reduces H929 MM growth in vivo”.
